Experiments:
Experiment in all cases: Kinase profiling
Type in all cases: biochemical
Fes(h) = biological target: T1, Fes(h) (Homo sapiens, UniProt P07332)
T1 construct: purchased Eurofins Cerep SA (KinaseProfiler)
Method: (§1) 380 kinases inhibitory activities of SKLB-D18 were conducted by Eurofins Cerep SA. The result was illustrated by kinase tree (http://www.kinhub.org/kinmap/).

PKD3(h) = biological target: T2, PKD3(h) (Homo sapiens, UniProt O94806)
T2 construct: purchased Eurofins Cerep SA (KinaseProfiler)
T2 sequence (O94806 whole entry): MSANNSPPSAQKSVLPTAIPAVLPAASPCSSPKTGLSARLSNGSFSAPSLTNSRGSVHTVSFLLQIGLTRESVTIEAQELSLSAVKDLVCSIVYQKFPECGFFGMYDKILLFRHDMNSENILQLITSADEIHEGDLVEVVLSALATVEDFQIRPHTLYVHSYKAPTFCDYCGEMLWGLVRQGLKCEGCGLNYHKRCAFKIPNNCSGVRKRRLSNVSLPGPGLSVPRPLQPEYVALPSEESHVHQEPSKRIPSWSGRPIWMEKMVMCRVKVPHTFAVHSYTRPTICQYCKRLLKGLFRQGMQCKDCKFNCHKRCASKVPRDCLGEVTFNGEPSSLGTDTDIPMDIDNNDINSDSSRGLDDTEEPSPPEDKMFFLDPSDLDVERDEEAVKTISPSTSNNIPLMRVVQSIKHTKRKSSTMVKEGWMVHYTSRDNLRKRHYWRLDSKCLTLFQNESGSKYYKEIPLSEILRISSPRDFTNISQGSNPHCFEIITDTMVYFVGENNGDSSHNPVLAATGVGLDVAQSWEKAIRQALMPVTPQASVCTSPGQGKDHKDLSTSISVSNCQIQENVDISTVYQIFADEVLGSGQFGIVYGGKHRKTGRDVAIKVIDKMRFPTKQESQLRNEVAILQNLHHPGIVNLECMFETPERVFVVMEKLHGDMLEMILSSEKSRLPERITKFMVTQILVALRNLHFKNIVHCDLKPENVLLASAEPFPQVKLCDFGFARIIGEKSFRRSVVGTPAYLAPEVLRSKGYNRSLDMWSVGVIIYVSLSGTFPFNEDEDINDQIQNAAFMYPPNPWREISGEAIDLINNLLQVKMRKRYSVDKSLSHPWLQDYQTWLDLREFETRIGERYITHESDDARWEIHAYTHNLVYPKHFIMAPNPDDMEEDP
Method: as §1

Rsk2(h) = biological target: T3, Rsk2(h) (Homo sapiens, UniProt P51812)
T3 construct: purchased Eurofins Cerep SA (KinaseProfiler)
T3 sequence (P51812 whole entry): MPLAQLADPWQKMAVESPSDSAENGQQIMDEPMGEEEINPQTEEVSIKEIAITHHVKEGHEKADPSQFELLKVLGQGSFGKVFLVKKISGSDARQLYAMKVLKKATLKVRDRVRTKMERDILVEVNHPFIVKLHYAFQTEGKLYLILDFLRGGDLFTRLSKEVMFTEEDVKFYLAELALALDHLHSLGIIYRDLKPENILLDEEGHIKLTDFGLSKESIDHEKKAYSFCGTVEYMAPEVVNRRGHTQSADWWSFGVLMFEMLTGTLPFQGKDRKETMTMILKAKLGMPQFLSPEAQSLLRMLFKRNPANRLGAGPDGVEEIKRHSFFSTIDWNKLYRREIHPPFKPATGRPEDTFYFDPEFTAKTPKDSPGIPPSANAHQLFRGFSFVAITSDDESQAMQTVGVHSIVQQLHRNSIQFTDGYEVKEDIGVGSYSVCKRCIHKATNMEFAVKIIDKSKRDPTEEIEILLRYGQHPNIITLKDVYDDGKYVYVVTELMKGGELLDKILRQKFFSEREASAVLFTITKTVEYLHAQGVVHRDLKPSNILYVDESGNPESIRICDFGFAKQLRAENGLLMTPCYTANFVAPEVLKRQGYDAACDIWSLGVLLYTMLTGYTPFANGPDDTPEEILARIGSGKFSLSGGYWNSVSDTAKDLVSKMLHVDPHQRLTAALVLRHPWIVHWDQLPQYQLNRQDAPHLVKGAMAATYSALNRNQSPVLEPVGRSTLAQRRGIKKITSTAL
Method: as §1

MST3(h) = biological target: T4, MST3(h) (Homo sapiens, UniProt Q9Y6E0)
T4 construct: purchased Eurofins Cerep SA (KinaseProfiler)
Method: as §1

IKKα(h) = biological target: T5, IKKα(h) (Homo sapiens, UniProt O15111)
T5 construct: purchased Eurofins Cerep SA (KinaseProfiler)
Method: as §1

ALK4(h) = biological target: T6, ALK4(h) (Homo sapiens, UniProt P36896)
T6 construct: purchased Eurofins Cerep SA (KinaseProfiler)
Method: as §1

CLIK1(h) = biological target: T7, CLIK1(h) (Homo sapiens, UniProt Q8TDR2)
T7 construct: purchased Eurofins Cerep SA (KinaseProfiler)
Method: as §1

RIPK2(h) = biological target: T8, RIPK2(h) (Homo sapiens, UniProt O43353)
T8 construct: purchased Eurofins Cerep SA (KinaseProfiler)
Method: as §1

ACTR2(h) = biological target: T9, ACTR2(h) (Homo sapiens, UniProt P27037)
T9 construct: purchased Eurofins Cerep SA (KinaseProfiler)
Method: as §1

IKKε(h) = biological target: T10, IKKε(h) (Homo sapiens, UniProt Q14164)
T10 construct: purchased Eurofins Cerep SA (KinaseProfiler)
Method: as §1

DAPK1(h) = biological target: T11, DAPK1(h) (Homo sapiens, UniProt P53355)
T11 construct: purchased Eurofins Cerep SA (KinaseProfiler)
Method: as §1

CSK(h) = biological target: T12, CSK(h) (Homo sapiens, UniProt P41240)
T12 construct: purchased Eurofins Cerep SA (KinaseProfiler)
Method: as §1

HIPK2(h) = biological target: T13, HIPK2(h) (Homo sapiens, UniProt Q9H2X6)
T13 construct: purchased Eurofins Cerep SA (KinaseProfiler)
Method: as §1

cSRC(h) = biological target: T14, cSRC(h) (Homo sapiens, UniProt P12931)
T14 construct: purchased Eurofins Cerep SA (KinaseProfiler)
Method: as §1

BMPR2(h) = biological target: T15, BMPR2(h) (Homo sapiens, UniProt Q13873)
T15 construct: purchased Eurofins Cerep SA (KinaseProfiler)
Method: as §1

GRK3(h) = biological target: T16, GRK3(h) (Homo sapiens, UniProt P35626)
T16 construct: purchased Eurofins Cerep SA (KinaseProfiler)
Method: as §1

Rse(h) = biological target: T17, Rse(h) (Homo sapiens, UniProt Q06418)
T17 construct: purchased Eurofins Cerep SA (KinaseProfiler)
T17 sequence (Q06418 41-890): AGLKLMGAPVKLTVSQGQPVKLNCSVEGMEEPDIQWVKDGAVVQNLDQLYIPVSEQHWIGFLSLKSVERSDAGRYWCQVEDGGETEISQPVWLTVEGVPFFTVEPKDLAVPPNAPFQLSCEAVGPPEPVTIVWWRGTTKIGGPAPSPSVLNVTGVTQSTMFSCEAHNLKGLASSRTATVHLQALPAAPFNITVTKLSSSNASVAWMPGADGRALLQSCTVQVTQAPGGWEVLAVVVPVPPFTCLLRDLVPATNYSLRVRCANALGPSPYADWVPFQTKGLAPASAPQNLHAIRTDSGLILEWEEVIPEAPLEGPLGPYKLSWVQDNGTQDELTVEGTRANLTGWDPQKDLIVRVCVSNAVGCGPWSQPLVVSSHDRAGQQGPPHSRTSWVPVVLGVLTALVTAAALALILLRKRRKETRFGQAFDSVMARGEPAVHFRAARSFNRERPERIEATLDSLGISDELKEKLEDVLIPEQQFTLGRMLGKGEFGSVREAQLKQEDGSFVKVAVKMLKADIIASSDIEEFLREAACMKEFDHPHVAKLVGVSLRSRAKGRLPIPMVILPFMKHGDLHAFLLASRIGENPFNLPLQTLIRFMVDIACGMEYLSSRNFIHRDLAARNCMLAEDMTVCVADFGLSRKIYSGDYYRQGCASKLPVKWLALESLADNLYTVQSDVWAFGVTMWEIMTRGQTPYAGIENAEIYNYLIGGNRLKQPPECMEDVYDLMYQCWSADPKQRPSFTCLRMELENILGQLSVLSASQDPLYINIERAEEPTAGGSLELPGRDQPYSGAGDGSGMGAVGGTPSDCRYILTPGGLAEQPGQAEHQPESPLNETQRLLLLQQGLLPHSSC
Method: as §1

ROCK-II(h) = biological target: T18, ROCK-II(h) (Homo sapiens, UniProt O75116)
T18 construct: purchased Eurofins Cerep SA (KinaseProfiler)
Method: as §1

Yes(h) = biological target: T19, Yes(h) (Homo sapiens, UniProt P07947)
T19 construct: purchased Eurofins Cerep SA (KinaseProfiler)
Method: as §1

JAK1(h) = biological target: T20, JAK1(h) (Homo sapiens, UniProt P23458)
T20 construct: purchased Eurofins Cerep SA (KinaseProfiler)
T20 sequence (P23458 whole entry): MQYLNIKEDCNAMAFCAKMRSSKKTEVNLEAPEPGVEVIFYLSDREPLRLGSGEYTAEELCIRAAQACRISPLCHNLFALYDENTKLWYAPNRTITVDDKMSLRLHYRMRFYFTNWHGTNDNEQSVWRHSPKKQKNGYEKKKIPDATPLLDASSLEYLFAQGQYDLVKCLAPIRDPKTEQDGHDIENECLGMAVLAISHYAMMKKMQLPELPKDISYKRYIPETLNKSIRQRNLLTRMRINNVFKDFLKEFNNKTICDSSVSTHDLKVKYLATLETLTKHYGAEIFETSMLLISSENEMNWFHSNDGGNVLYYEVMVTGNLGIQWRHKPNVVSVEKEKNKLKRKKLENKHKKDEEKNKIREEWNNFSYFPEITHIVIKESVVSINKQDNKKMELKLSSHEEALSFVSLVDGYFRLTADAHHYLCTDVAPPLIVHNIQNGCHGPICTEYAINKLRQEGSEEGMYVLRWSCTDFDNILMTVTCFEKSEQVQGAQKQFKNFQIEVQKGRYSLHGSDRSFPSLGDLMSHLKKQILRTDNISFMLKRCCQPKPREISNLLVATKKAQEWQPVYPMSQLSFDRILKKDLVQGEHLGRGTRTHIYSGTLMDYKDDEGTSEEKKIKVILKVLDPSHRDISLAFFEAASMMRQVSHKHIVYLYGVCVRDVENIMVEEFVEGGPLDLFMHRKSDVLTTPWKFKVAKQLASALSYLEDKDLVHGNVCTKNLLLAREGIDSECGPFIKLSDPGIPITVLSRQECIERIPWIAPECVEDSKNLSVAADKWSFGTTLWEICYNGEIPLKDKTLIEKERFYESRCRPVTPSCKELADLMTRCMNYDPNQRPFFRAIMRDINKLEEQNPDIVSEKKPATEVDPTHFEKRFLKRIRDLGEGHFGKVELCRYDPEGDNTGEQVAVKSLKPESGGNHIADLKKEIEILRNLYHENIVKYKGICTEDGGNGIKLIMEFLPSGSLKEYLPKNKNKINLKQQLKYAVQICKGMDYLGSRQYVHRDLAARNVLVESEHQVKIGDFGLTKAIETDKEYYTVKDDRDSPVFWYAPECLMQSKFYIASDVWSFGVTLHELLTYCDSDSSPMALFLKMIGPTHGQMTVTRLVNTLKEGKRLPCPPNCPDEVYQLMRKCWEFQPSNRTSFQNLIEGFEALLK
Method: as §1

CK2α1(h) = biological target: T21, CK2α1(h) (Homo sapiens, UniProt P68400)
T21 construct: purchased Eurofins Cerep SA (KinaseProfiler)
Method: as §1

SIK2(h) = biological target: T22, SIK2(h) (Homo sapiens, UniProt Q9H0K1)
T22 construct: purchased Eurofins Cerep SA (KinaseProfiler)
Method: as §1

AMPKα1(h) = biological target: T23, AMPKα1(h) (Homo sapiens, UniProt Q13131)
T23 construct: purchased Eurofins Cerep SA (KinaseProfiler)
Method: as §1

ALK2(h) = biological target: T24, ALK2(h) (Homo sapiens, UniProt Q04771)
T24 construct: purchased Eurofins Cerep SA (KinaseProfiler)
Method: as §1

MAPK1(h) = biological target: T25, MAPK1(h) (Homo sapiens, UniProt P28482)
T25 construct: purchased Eurofins Cerep SA (KinaseProfiler)
T25 sequence (P28482 whole entry): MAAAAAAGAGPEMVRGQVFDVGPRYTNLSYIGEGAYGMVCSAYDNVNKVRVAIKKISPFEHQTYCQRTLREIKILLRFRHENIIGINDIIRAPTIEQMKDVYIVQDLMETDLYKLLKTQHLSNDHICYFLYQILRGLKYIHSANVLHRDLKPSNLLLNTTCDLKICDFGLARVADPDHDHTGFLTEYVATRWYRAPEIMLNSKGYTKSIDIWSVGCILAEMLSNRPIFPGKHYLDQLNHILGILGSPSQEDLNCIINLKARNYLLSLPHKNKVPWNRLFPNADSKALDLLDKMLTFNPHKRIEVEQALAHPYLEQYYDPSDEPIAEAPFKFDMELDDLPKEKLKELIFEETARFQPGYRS
Method: as §1

GSK3β(h) = biological target: T26, GSK3β(h) (Homo sapiens, UniProt P49841)
T26 construct: purchased Eurofins Cerep SA (KinaseProfiler)
Method: as §1

EphB2(h) = biological target: T27, EphB2(h) (Homo sapiens, UniProt P29323)
T27 construct: purchased Eurofins Cerep SA (KinaseProfiler)
Method: as §1

HIPK3(h) = biological target: T28, HIPK3(h) (Homo sapiens, UniProt Q9H422)
T28 construct: purchased Eurofins Cerep SA (KinaseProfiler)
Method: as §1

BrSK1(h) = biological target: T29, BrSK1(h) (Homo sapiens, UniProt Q8TDC3)
T29 construct: purchased Eurofins Cerep SA (KinaseProfiler)
Method: as §1

MELK(h) = biological target: T30, MELK(h) (Homo sapiens, UniProt Q14680)
T30 construct: purchased Eurofins Cerep SA (KinaseProfiler)
Method: as §1

CLK1(h) = biological target: T31, CLK1(h) (Homo sapiens, UniProt P49759)
T31 construct: purchased Eurofins Cerep SA (KinaseProfiler)
Method: as §1

WNK4(h) = biological target: T32, WNK4(h) (Homo sapiens, UniProt Q96J92)
T32 construct: purchased Eurofins Cerep SA (KinaseProfiler)
Method: as §1

IR(h), activated = biological target: T33, IR(h), activated (Homo sapiens, UniProt P06213)
T33 construct: purchased Eurofins Cerep SA (KinaseProfiler)
Method: as §1

Fgr(h) = biological target: T34, Fgr(h) (Homo sapiens, UniProt P09769)
T34 construct: purchased Eurofins Cerep SA (KinaseProfiler)
T34 sequence (P09769 whole entry): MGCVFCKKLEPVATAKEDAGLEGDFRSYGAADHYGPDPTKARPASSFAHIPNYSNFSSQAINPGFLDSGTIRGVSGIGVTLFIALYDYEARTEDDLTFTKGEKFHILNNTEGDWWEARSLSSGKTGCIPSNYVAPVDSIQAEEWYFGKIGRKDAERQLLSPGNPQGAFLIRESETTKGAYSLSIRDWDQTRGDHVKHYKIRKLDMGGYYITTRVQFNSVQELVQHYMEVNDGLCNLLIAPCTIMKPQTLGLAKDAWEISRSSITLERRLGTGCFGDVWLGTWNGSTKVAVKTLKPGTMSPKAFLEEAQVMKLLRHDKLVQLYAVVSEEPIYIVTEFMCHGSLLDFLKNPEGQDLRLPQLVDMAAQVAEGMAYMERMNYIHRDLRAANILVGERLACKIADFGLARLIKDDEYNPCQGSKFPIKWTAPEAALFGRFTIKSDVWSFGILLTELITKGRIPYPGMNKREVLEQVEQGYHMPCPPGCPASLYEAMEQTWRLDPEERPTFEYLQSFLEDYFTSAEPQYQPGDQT
Method: as §1

Fyn(h) = biological target: T35, Fyn(h) (Homo sapiens, UniProt P06241)
T35 construct: purchased Eurofins Cerep SA (KinaseProfiler)
Method: as §1

PIP4K2a(h) = biological target: T36, PIP4K2a(h) (Homo sapiens, UniProt P48426)
T36 construct: purchased Eurofins Cerep SA (KinaseProfiler)
Method: as §1

CDK5/p25(h) = biological target: T37, CDK5/p25(h) (Homo sapiens, UniProt Q00535)
T37 construct: purchased Eurofins Cerep SA (KinaseProfiler)
Method: as §1

SGK2(h) = biological target: T38, SGK2(h) (Homo sapiens, UniProt Q9HBY8)
T38 construct: purchased Eurofins Cerep SA (KinaseProfiler)
T38 sequence (Q9HBY8 whole entry): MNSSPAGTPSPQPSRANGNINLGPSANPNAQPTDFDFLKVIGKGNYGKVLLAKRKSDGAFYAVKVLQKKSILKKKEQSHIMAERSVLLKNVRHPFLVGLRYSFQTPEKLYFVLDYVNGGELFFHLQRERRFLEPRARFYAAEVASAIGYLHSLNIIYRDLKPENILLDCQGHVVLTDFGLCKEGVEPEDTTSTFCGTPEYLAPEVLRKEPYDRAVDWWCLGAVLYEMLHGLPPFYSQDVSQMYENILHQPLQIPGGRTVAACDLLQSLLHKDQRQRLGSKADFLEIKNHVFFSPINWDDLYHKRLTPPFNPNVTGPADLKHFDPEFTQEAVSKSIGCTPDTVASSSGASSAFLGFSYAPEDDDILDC
Method: as §1

LRRK2(h) = biological target: T39, LRRK2(h) (Homo sapiens, UniProt Q5S007)
T39 construct: purchased Eurofins Cerep SA (KinaseProfiler)
Method: as §1

STK39(h) = biological target: T40, STK39(h) (Homo sapiens, UniProt Q9UEW8)
T40 construct: purchased Eurofins Cerep SA (KinaseProfiler)
Method: as §1

Pim-1(h) = biological target: T41, Pim-1(h) (Homo sapiens, UniProt P11309)
T41 construct: purchased Eurofins Cerep SA (KinaseProfiler)
Method: as §1

CN(C)Cc1cccc(Nc2ncc(Cl)c(-c3csc(C(=O)NN4CCOCC4)c3)n2)c1 [SKLB-D18, 4-(5-chloro-2-((3-((dimethylamino)methyl)phenyl)amino)pyrimidin-4-yl)-N-morpholinothiophene-2-carboxamide]
inhibition at 1 µM (Fes(h)): 53% | inhibition at 1 µM (PKD3(h)): 55% | inhibition at 1 µM (Rsk2(h)): 41% | inhibition at 1 µM (MST3(h)): 19% | inhibition at 1 µM (IKKα(h)): 34% | inhibition at 1 µM (ALK4(h)): 26% | inhibition at 1 µM (CLIK1(h)): 12% | inhibition at 1 µM (RIPK2(h)): 61% | inhibition at 1 µM (ACTR2(h)): 10% | inhibition at 1 µM (IKKε(h)): 64% | inhibition at 1 µM (DAPK1(h)): 67% | inhibition at 1 µM (CSK(h)): -11% | inhibition at 1 µM (HIPK2(h)): 67% | inhibition at 1 µM (cSRC(h)): 55% | inhibition at 1 µM (BMPR2(h)): 21% | inhibition at 1 µM (GRK3(h)): 2% | inhibition at 1 µM (Rse(h)): 12% | inhibition at 1 µM (ROCK-II(h)): 34% | inhibition at 1 µM (Yes(h)): 65% | inhibition at 1 µM (JAK1(h)): 59% | inhibition at 1 µM (CK2α1(h)): 49% | inhibition at 1 µM (SIK2(h)): 67% | inhibition at 1 µM (AMPKα1(h)): 61% | inhibition at 1 µM (ALK2(h)): 16% | inhibition at 1 µM (MAPK1(h)): 94% | inhibition at 1 µM (GSK3β(h)): 68% | inhibition at 1 µM (EphB2(h)): -1% | inhibition at 1 µM (HIPK3(h)): 64% | inhibition at 1 µM (BrSK1(h)): 2% | inhibition at 1 µM (MELK(h)): 62% | inhibition at 1 µM (CLK1(h)): 17% | inhibition at 1 µM (WNK4(h)): 18% | inhibition at 1 µM (IR(h), activated): 13% | inhibition at 1 µM (Fgr(h)): 42% | inhibition at 1 µM (Fyn(h)): 60% | inhibition at 1 µM (PIP4K2a(h)): -1% | inhibition at 1 µM (CDK5/p25(h)): 55% | inhibition at 1 µM (SGK2(h)): 11% | inhibition at 1 µM (LRRK2(h)): 65% | inhibition at 1 µM (STK39(h)): 37% | inhibition at 1 µM (Pim-1(h)): 37%

Source: PMC11842588, “A first-in-class selective inhibitor of ERK1/2 and ERK5 overcomes drug resistance with a single-molecule strategy” (Signal Transduction and Targeted Therapy, 2025)
